Results: the supplement of paper PMC8882468

These compounds were tested on HCI-027 (organoid from a triple-negative breast cancer xenograft) (assay: CTG-3D luminescence at 96 h relative to day-0 seeding control (ratio to day 0); higher = more growth / less cytotoxicity; PDxO 3D drug screen, 96 h, CTG-3D normalised to day-0 seeding control.). Settings: 10 µM; days in culture: 194.

Row | Compound | CTG-3D luminescence at 96 h
1 | C[C@@H]1COCCN1c1cc(C2([S@](C)(=N)=O)CC2)nc(-c2cc[nH]c3nccc2-3)n1 [ceralasertib] | 0.111
2 | CCN1CCN(Cc2ccc(Nc3ncc(F)c(-c4cc(F)c5nc(C)n(C(C)C)c5c4)n3)nc2)CC1 [abemaciclib] | 1.39
3 | NC1(C(=O)N[C@@H](CCO)c2ccc(Cl)cc2)CCN(c2nc[nH]c3nccc2-3)CC1 [capivasertib] | 1.2
4 | CC(C)n1nc(-c2ccc3oc(N)nc3c2)c2c(N)ncnc21 [sapanisertib] | 0.441
5 | O=C(c1ccc(F)c(F)c1Nc1ccc(I)cc1F)N1CC(O)([C@@H]2CCCCN2)C1 [cobimetinib] | 0.796
6 | C[C@H](NC(=O)CCC(F)(F)F)C(=O)N[C@@H]1C(=O)N(CCO)c2ncccc2-c2ccccc21 [crenigacestat] | 0.312
7 | Cc1cc(Nc2ncc(Cl)c(Nc3ccccc3S(=O)(=O)C(C)C)n2)c(OC(C)C)cc1C1CCNCC1 [ceritinib] | 0.0105
8 | CS(=O)(=O)c1ccc(C(=O)Nc2ccc(Cl)c(-c3ccccn3)c2)c(Cl)c1 [vismodegib] | 2.12
9 | NC(=O)c1cccc2cn(-c3ccc([C@@H]4CCCNC4)cc3)nc12 [niraparib] | 0.735

Same assay, conditions: 10 µM; days in culture: 201

Row | Compound | CTG-3D luminescence at 96 h
10 | C[C@@H]1COCCN1c1cc(C2([S@](C)(=N)=O)CC2)nc(-c2cc[nH]c3nccc2-3)n1 [ceralasertib] | 0.134
11 | CCN1CCN(Cc2ccc(Nc3ncc(F)c(-c4cc(F)c5nc(C)n(C(C)C)c5c4)n3)nc2)CC1 [abemaciclib] | 1.35
12 | NC1(C(=O)N[C@@H](CCO)c2ccc(Cl)cc2)CCN(c2nc[nH]c3nccc2-3)CC1 [capivasertib] | 0.976
13 | CC(C)n1nc(-c2ccc3oc(N)nc3c2)c2c(N)ncnc21 [sapanisertib] | 0.301
14 | O=C(c1ccc(F)c(F)c1Nc1ccc(I)cc1F)N1CC(O)([C@@H]2CCCCN2)C1 [cobimetinib] | 0.365
15 | C[C@H](NC(=O)CCC(F)(F)F)C(=O)N[C@@H]1C(=O)N(CCO)c2ncccc2-c2ccccc21 [crenigacestat] | 0.258
16 | Cc1cc(Nc2ncc(Cl)c(Nc3ccccc3S(=O)(=O)C(C)C)n2)c(OC(C)C)cc1C1CCNCC1 [ceritinib] | 0.0089
17 | CS(=O)(=O)c1ccc(C(=O)Nc2ccc(Cl)c(-c3ccccn3)c2)c(Cl)c1 [vismodegib] | 1.74
18 | NC(=O)c1cccc2cn(-c3ccc([C@@H]4CCCNC4)cc3)nc12 [niraparib] | 0.457

Same assay, conditions: 100 µM; days in culture: 176

Row | Compound | CTG-3D luminescence at 96 h
19 | C[C@@H]1COCCN1c1cc(C2([S@](C)(=N)=O)CC2)nc(-c2cc[nH]c3nccc2-3)n1 [ceralasertib] | 0.29
20 | CCN1CCN(Cc2ccc(Nc3ncc(F)c(-c4cc(F)c5nc(C)n(C(C)C)c5c4)n3)nc2)CC1 [abemaciclib] | 0.0171
21 | NC1(C(=O)N[C@@H](CCO)c2ccc(Cl)cc2)CCN(c2nc[nH]c3nccc2-3)CC1 [capivasertib] | 0.0952
22 | CC(C)n1nc(-c2ccc3oc(N)nc3c2)c2c(N)ncnc21 [sapanisertib] | 0.0926
23 | O=C(c1ccc(F)c(F)c1Nc1ccc(I)cc1F)N1CC(O)([C@@H]2CCCCN2)C1 [cobimetinib] | 0.0169
24 | C[C@H](NC(=O)CCC(F)(F)F)C(=O)N[C@@H]1C(=O)N(CCO)c2ncccc2-c2ccccc21 [crenigacestat] | 0.335
25 | Cc1cc(Nc2ncc(Cl)c(Nc3ccccc3S(=O)(=O)C(C)C)n2)c(OC(C)C)cc1C1CCNCC1 [ceritinib] | -0.00642
26 | CS(=O)(=O)c1ccc(C(=O)Nc2ccc(Cl)c(-c3ccccn3)c2)c(Cl)c1 [vismodegib] | -0.204
27 | NC(=O)c1cccc2cn(-c3ccc([C@@H]4CCCNC4)cc3)nc12 [niraparib] | -0.239

Same assay, conditions: 100 µM; days in culture: 194

Row | Compound | CTG-3D luminescence at 96 h
28 | C[C@@H]1COCCN1c1cc(C2([S@](C)(=N)=O)CC2)nc(-c2cc[nH]c3nccc2-3)n1 [ceralasertib] | 0.232
29 | CCN1CCN(Cc2ccc(Nc3ncc(F)c(-c4cc(F)c5nc(C)n(C(C)C)c5c4)n3)nc2)CC1 [abemaciclib] | 0.0205
30 | NC1(C(=O)N[C@@H](CCO)c2ccc(Cl)cc2)CCN(c2nc[nH]c3nccc2-3)CC1 [capivasertib] | 0.0815
31 | CC(C)n1nc(-c2ccc3oc(N)nc3c2)c2c(N)ncnc21 [sapanisertib] | 0.102
32 | O=C(c1ccc(F)c(F)c1Nc1ccc(I)cc1F)N1CC(O)([C@@H]2CCCCN2)C1 [cobimetinib] | 0.014
33 | C[C@H](NC(=O)CCC(F)(F)F)C(=O)N[C@@H]1C(=O)N(CCO)c2ncccc2-c2ccccc21 [crenigacestat] | 0.344
34 | Cc1cc(Nc2ncc(Cl)c(Nc3ccccc3S(=O)(=O)C(C)C)n2)c(OC(C)C)cc1C1CCNCC1 [ceritinib] | -0.00633
35 | CS(=O)(=O)c1ccc(C(=O)Nc2ccc(Cl)c(-c3ccccn3)c2)c(Cl)c1 [vismodegib] | -0.0508
36 | NC(=O)c1cccc2cn(-c3ccc([C@@H]4CCCNC4)cc3)nc12 [niraparib] | -0.0845

Same assay, conditions: 100 µM; days in culture: 201

Row | Compound | CTG-3D luminescence at 96 h
37 | C[C@@H]1COCCN1c1cc(C2([S@](C)(=N)=O)CC2)nc(-c2cc[nH]c3nccc2-3)n1 [ceralasertib] | 0.279
38 | CCN1CCN(Cc2ccc(Nc3ncc(F)c(-c4cc(F)c5nc(C)n(C(C)C)c5c4)n3)nc2)CC1 [abemaciclib] | 0.018
39 | NC1(C(=O)N[C@@H](CCO)c2ccc(Cl)cc2)CCN(c2nc[nH]c3nccc2-3)CC1 [capivasertib] | 0.0625
40 | CC(C)n1nc(-c2ccc3oc(N)nc3c2)c2c(N)ncnc21 [sapanisertib] | 0.141
41 | O=C(c1ccc(F)c(F)c1Nc1ccc(I)cc1F)N1CC(O)([C@@H]2CCCCN2)C1 [cobimetinib] | 0.0102
42 | C[C@H](NC(=O)CCC(F)(F)F)C(=O)N[C@@H]1C(=O)N(CCO)c2ncccc2-c2ccccc21 [crenigacestat] | 0.259
43 | Cc1cc(Nc2ncc(Cl)c(Nc3ccccc3S(=O)(=O)C(C)C)n2)c(OC(C)C)cc1C1CCNCC1 [ceritinib] | -0.00463
44 | CS(=O)(=O)c1ccc(C(=O)Nc2ccc(Cl)c(-c3ccccn3)c2)c(Cl)c1 [vismodegib] | 0.019
45 | NC(=O)c1cccc2cn(-c3ccc([C@@H]4CCCNC4)cc3)nc12 [niraparib] | -0.0215

Same assay, conditions: 625 fM; days in culture: 176

Row | Compound | CTG-3D luminescence at 96 h
46 | C[C@@H]1COCCN1c1cc(C2([S@](C)(=N)=O)CC2)nc(-c2cc[nH]c3nccc2-3)n1 [ceralasertib] | 2.06
47 | CCN1CCN(Cc2ccc(Nc3ncc(F)c(-c4cc(F)c5nc(C)n(C(C)C)c5c4)n3)nc2)CC1 [abemaciclib] | 1.82
48 | NC1(C(=O)N[C@@H](CCO)c2ccc(Cl)cc2)CCN(c2nc[nH]c3nccc2-3)CC1 [capivasertib] | 2.13
49 | CC(C)n1nc(-c2ccc3oc(N)nc3c2)c2c(N)ncnc21 [sapanisertib] | 1.82
50 | O=C(c1ccc(F)c(F)c1Nc1ccc(I)cc1F)N1CC(O)([C@@H]2CCCCN2)C1 [cobimetinib] | 1.76
51 | C[C@H](NC(=O)CCC(F)(F)F)C(=O)N[C@@H]1C(=O)N(CCO)c2ncccc2-c2ccccc21 [crenigacestat] | 1.6
52 | Cc1cc(Nc2ncc(Cl)c(Nc3ccccc3S(=O)(=O)C(C)C)n2)c(OC(C)C)cc1C1CCNCC1 [ceritinib] | 2.34
53 | CS(=O)(=O)c1ccc(C(=O)Nc2ccc(Cl)c(-c3ccccn3)c2)c(Cl)c1 [vismodegib] | 2.79
54 | NC(=O)c1cccc2cn(-c3ccc([C@@H]4CCCNC4)cc3)nc12 [niraparib] | 3.68

Same assay, conditions: 625 fM; days in culture: 194

Row | Compound | CTG-3D luminescence at 96 h
55 | C[C@@H]1COCCN1c1cc(C2([S@](C)(=N)=O)CC2)nc(-c2cc[nH]c3nccc2-3)n1 [ceralasertib] | 1.56
56 | CCN1CCN(Cc2ccc(Nc3ncc(F)c(-c4cc(F)c5nc(C)n(C(C)C)c5c4)n3)nc2)CC1 [abemaciclib] | 1.89
57 | NC1(C(=O)N[C@@H](CCO)c2ccc(Cl)cc2)CCN(c2nc[nH]c3nccc2-3)CC1 [capivasertib] | 1.55
58 | CC(C)n1nc(-c2ccc3oc(N)nc3c2)c2c(N)ncnc21 [sapanisertib] | 1.57
59 | O=C(c1ccc(F)c(F)c1Nc1ccc(I)cc1F)N1CC(O)([C@@H]2CCCCN2)C1 [cobimetinib] | 1.65
60 | C[C@H](NC(=O)CCC(F)(F)F)C(=O)N[C@@H]1C(=O)N(CCO)c2ncccc2-c2ccccc21 [crenigacestat] | 1.57
61 | Cc1cc(Nc2ncc(Cl)c(Nc3ccccc3S(=O)(=O)C(C)C)n2)c(OC(C)C)cc1C1CCNCC1 [ceritinib] | 1.39
62 | CS(=O)(=O)c1ccc(C(=O)Nc2ccc(Cl)c(-c3ccccn3)c2)c(Cl)c1 [vismodegib] | 2.34
63 | NC(=O)c1cccc2cn(-c3ccc([C@@H]4CCCNC4)cc3)nc12 [niraparib] | 2.19

Same assay, conditions: 625 fM; days in culture: 201

Row | Compound | CTG-3D luminescence at 96 h
64 | C[C@@H]1COCCN1c1cc(C2([S@](C)(=N)=O)CC2)nc(-c2cc[nH]c3nccc2-3)n1 [ceralasertib] | 1.54
65 | CCN1CCN(Cc2ccc(Nc3ncc(F)c(-c4cc(F)c5nc(C)n(C(C)C)c5c4)n3)nc2)CC1 [abemaciclib] | 2.37
66 | NC1(C(=O)N[C@@H](CCO)c2ccc(Cl)cc2)CCN(c2nc[nH]c3nccc2-3)CC1 [capivasertib] | 1.6
67 | CC(C)n1nc(-c2ccc3oc(N)nc3c2)c2c(N)ncnc21 [sapanisertib] | 2.47
68 | O=C(c1ccc(F)c(F)c1Nc1ccc(I)cc1F)N1CC(O)([C@@H]2CCCCN2)C1 [cobimetinib] | 2.09
69 | C[C@H](NC(=O)CCC(F)(F)F)C(=O)N[C@@H]1C(=O)N(CCO)c2ncccc2-c2ccccc21 [crenigacestat] | 1.97
70 | Cc1cc(Nc2ncc(Cl)c(Nc3ccccc3S(=O)(=O)C(C)C)n2)c(OC(C)C)cc1C1CCNCC1 [ceritinib] | 1.31
71 | CS(=O)(=O)c1ccc(C(=O)Nc2ccc(Cl)c(-c3ccccn3)c2)c(Cl)c1 [vismodegib] | 3.54
72 | NC(=O)c1cccc2cn(-c3ccc([C@@H]4CCCNC4)cc3)nc12 [niraparib] | 2.7
